Several values for one entry are separate records, joined by “and”; a condition that tells them apart may be missing. Identical values can stand only once.
Tested on: anaesthetised dogs
Test: Tachyphylaxis model on anaesthetised dogs (repeated i.d. administration)
Type: in vivo, dogs (labrador/harrier cross)
Parameters: Δdp/dt average / ΔBPs / ΔBPd / ΔLVEDP / ΔHR / ΔBPs average / ΔBPd average / ΔLVEDP average / ΔHR average: unit not given here
Details: for ΔBPd / ΔBPs / ΔHR / ΔLVEDP / Δdp/dt: single dog
Experimental: Comparison with isosorbide mononitrate (IS-5-MN).
The product (46) is tested in a tachyphylaxis model on anaesthetised dogs. IS-5-MN is used as reference substance.
8 dogs of each sex, weighing between 16 and 24 kg, are used. These dogs are the progeny of a labrador/harrier cross. Anaesthesia is induced with the aid of sodium pentobarbital (45 mg/kg i.v.) and maintained by i.v. perfusion (flow rate: 8 mg/kg/h). The animals are ventilated, with the aid of a "Bird Mark 7" respirator, using ambient air, and catheterised. […] The arterial blood gases are measured at regular intervals.
IS-5-MN is also dissolved in water and given i.d. in a dosage of 5 mg/kg in a volume of 10 ml/animal.
Three hours (in the case of IS-5-MN) or four hours (in the case of (46)) after the first administration, the compounds are readministered in the same dosage and by the same route. The haemodynamic parameter chosen for the study of the tachyphylaxis is the systolic blood pressure (BPs), insofar as this parameter is very sensitive to the administration of the compounds.

[1] = 1st administration, 5 mg/kg i.d., 5 min
[2] = 1st administration, 5 mg/kg i.d., 10 min
[3] = 1st administration, 5 mg/kg i.d., 15 min
[4] = 1st administration, 5 mg/kg i.d., 30 min
[5] = 1st administration, 5 mg/kg i.d., 60 min
[6] = 1st administration, 5 mg/kg i.d., 120 min
[7] = 1st administration, 5 mg/kg i.d., 180 min
[8] = i.d., IS-5-MN 5 mg/kg, (46) 0.75 mg/kg
[9] = n = 4, 2nd administration, 5 mg/kg i.d., 5 min
[10] = n = 4, 2nd administration, 5 mg/kg i.d., 10 min
[11] = n = 4, 2nd administration, 5 mg/kg i.d., 15 min
[12] = n = 4, 2nd administration, 5 mg/kg i.d., 30 min
[13] = n = 4, 2nd administration, 5 mg/kg i.d., 60 min
[14] = n = 4, 2nd administration, 5 mg/kg i.d., 120 min
[15] = n = 4, 2nd administration, 5 mg/kg i.d., 180 min
[16] = 1st administration, 5 mg/kg i.d., 5 min, 5 mg/kg
[17] = 1st administration, 5 mg/kg i.d., 10 min, 5 mg/kg
[18] = 1st administration, 5 mg/kg i.d., 15 min, 5 mg/kg
[19] = 1st administration, 5 mg/kg i.d., 30 min, 5 mg/kg
[20] = 1st administration, 5 mg/kg i.d., 60 min, 5 mg/kg
[21] = 1st administration, 5 mg/kg i.d., 120 min, 5 mg/kg
[22] = 1st administration, 5 mg/kg i.d., 180 min, 5 mg/kg
[23] = 2nd administration, 5 mg/kg i.d., 5 min, 5 mg/kg
[24] = 2nd administration, 5 mg/kg i.d., 10 min, 5 mg/kg
[25] = 2nd administration, 5 mg/kg i.d., 15 min, 5 mg/kg
[26] = 2nd administration, 5 mg/kg i.d., 30 min, 5 mg/kg
[27] = 2nd administration, 5 mg/kg i.d., 60 min, 5 mg/kg
[28] = 2nd administration, 5 mg/kg i.d., 120 min, 5 mg/kg
[29] = 2nd administration, 5 mg/kg i.d., 180 min, 5 mg/kg

`O=[N+]([O-])O[C@@H]1CO[C@H]2[C@@H]1OC[C@@H]2O` [IS-5-MN, isosorbide 5-mononitrate, reference compound] was tested, and the “fall in the BPs, first administration, on average” value (5 mg/kg i.d.) was -30 mmHg, the “return of BP to control value after second administration” value (5 mg/kg i.d.) was “rapid return to the control value” and the ΔBPd average [1] was -21. It also gave a ΔBPs average [1] of -30, a ΔLVEDP average [1] of -3 and a Δdp/dt average [1] of -175. It also gave a ΔBPd average [2] of -18, a ΔBPs average [2] of -26 and a ΔLVEDP average [2] of -3. For the same compound, the Δdp/dt average [2] was -175, the ΔBPd average [3] was -16 and the ΔBPs average [3] was -25. It also gave a ΔLVEDP average [3] of -3, a Δdp/dt average [3] of -150 and a ΔBPd average [4] of -13. For the same compound, the ΔBPs average [4] was -24, the ΔLVEDP average [4] was -3 and the Δdp/dt average [4] was -175. The ΔBPd average [5] was -12, the ΔBPs average [5] was -23 and the ΔLVEDP average [5] was -1. For the same compound, the Δdp/dt average [5] was -200, the ΔBPd average [6] was 3 and the ΔBPs average [6] was -5. It also gave a ΔLVEDP average [6] of -2, a Δdp/dt average [6] of 75 and a ΔBPd average [7] of 3. It also gave a ΔBPs average [7] of -4, a ΔLVEDP average [7] of -2 and a Δdp/dt average [7] of 100. For the same compound, the “development of tachyphylaxis after repeated administration” value (dogs, two i.d. administrations) was “tachyphylaxis after repeated administration”, the “maximum fall in the BP after second administration” value [8] was -19 mmHg and the “time of maximum effect on BPs after first administration” value [8] was 5 min. The “time of maximum fall in the BP after second administration” value [8] was 5 min, the ΔBPd average [9] was -13 and the ΔBPs average [9] was -19. It also gave a ΔLVEDP average [9] of -1, a Δdp/dt average [9] of -125 and a ΔBPd average [10] of -11. The ΔBPs average [10] was -15, the ΔLVEDP average [10] was -2 and the Δdp/dt average [10] was -75. For the same compound, the ΔBPd average [11] was -9, the ΔBPs average [11] was -13 and the ΔLVEDP average [11] was -1. For the same compound, the Δdp/dt average [11] was -100, the ΔBPd average [12] was -5 and the ΔBPs average [12] was -9. The ΔLVEDP average [12] was -1, the Δdp/dt average [12] was 0 and the ΔBPd average [13] was -4. For the same compound, the ΔBPs average [13] was -7, the ΔLVEDP average [13] was -2 and the Δdp/dt average [13] was 50. The ΔBPd average [14] was -5, the ΔBPs average [14] was -6 and the ΔLVEDP average [14] was -1. The Δdp/dt average [14] was 100, the ΔBPd average [15] was -1 and the ΔBPs average [15] was -4. For the same compound, the ΔLVEDP average [15] was -2, the Δdp/dt average [15] was 175 and the ΔBPd [16] was -15 and -25 and -20. For the same compound, the ΔBPs [16] was -25 and -35 and -30, the ΔHR [16] was 0 and 5 and the ΔLVEDP [16] was -3 and -4 and -2. For the same compound, the Δdp/dt [16] was -200 and -100 and -300, the ΔBPd [17] was -15 and -20 and the ΔBPs [17] was -25 and -30. The ΔHR [17] was 0 and 5, the ΔLVEDP [17] was -3 and -5 and -1 and the Δdp/dt [17] was -300 and 0 and -100. For the same compound, the ΔBPd [18] was -15 and -10 and -20, the ΔBPs [18] was -25 and -20 and -30 and the ΔHR [18] was -5 and 5 and 0. For the same compound, the ΔLVEDP [18] was -3 and -5 and -1, the Δdp/dt [18] was -200 and 0 and -100 and -300 and the ΔBPd [19] was -15 and -10. The ΔBPs [19] was -35 and -20 and -25 and -15, the ΔHR [19] was -15 and 5 and 0 and the ΔLVEDP [19] was -1 and -5 and -3. For the same compound, the Δdp/dt [19] was -300 and 0 and -100, the ΔBPd [20] was -20 and 0 and -15 and the ΔBPs [20] was -35 and -10 and -25 and -20. For the same compound, the ΔHR [20] was -20 and 10 and -5 and 0, the ΔLVEDP [20] was 0 and -2 and -3 and -1 and the Δdp/dt [20] was -400 and 0 and -100 and -300. For the same compound, the ΔBPd [21] was 10 and 0 and -5 and 5, the ΔBPs [21] was 0 and -15 and -5 and the ΔHR [21] was 0 and 10 and 5. For the same compound, the ΔLVEDP [21] was -1 and -3 and -2, the Δdp/dt [21] was 400 and 0 and -100 and the Δdp/dt [7] was 100. The ΔBPd [22] was 5 and 0 and -5 and 10, the ΔBPs [22] was -5 and 0 and -15 and 5 and the ΔHR [22] was -5 and 10 and 5. The ΔLVEDP [22] was -3 and -1 and -5 and 0, the ΔBPd [23] was -5 and -15 and the ΔBPs [23] was -15 and -20. The ΔHR [23] was 0 and 5, the ΔLVEDP [23] was -2 and 0 and the Δdp/dt [23] was -200 and -100. For the same compound, the ΔBPs (2nd administration, 5 mg/kg i.d., 10 min) was -15, the ΔBPd [24] was -5 and -15 and the ΔHR [24] was 0 and 5. The ΔLVEDP [24] was -2 and -1, the Δdp/dt [24] was -200 and 0 and -100 and the Δdp/dt (2nd administration, 5 mg/kg i.d., 15 min) was -100. The ΔBPd [25] was -5 and -15 and -10, the ΔBPs [25] was -15 and -10 and the ΔHR [25] was -5 and 0 and 5. For the same compound, the ΔLVEDP [25] was -2 and -1 and 0, the Δdp/dt (2nd administration, 5 mg/kg i.d., 30 min) was 0 and the ΔBPd [26] was 0 and -10 and -5. For the same compound, the ΔBPs [26] was -10 and -5, the ΔHR [26] was 0 and 5 and the ΔLVEDP [26] was -2 and -1 and 0. For the same compound, the ΔBPd [27] was 5 and -10 and 0, the ΔBPs [27] was 0 and -10 and -15 and -5 and the ΔHR [27] was 5 and 0 and -5. For the same compound, the ΔLVEDP [27] was -2 and -3 and -1, the Δdp/dt [27] was 100 and 0 and -100 and 200 and the ΔBPd [28] was 0 and -15 and -5. For the same compound, the ΔBPs [28] was -5 and -15 and 0, the ΔHR [28] was 5 and -5 and 10 and the ΔLVEDP [28] was -2 and 1. For the same compound, the Δdp/dt [28] was 0 and 100 and 300, the ΔBPd [29] was 0 and -5 and the ΔBPs [29] was -5 and 0. The ΔHR [29] was 5 and 15 and 0, the ΔLVEDP [29] was -2 and -3 and -1 and the Δdp/dt [29] was 100 and 200 and 300.
